US20230085440A1, “METHODS OF PREVENTING AND TREATING PAIN AND ASSOCIATED SYMPTOMS” (Ethismos Research, Inc., priority 2021, published 2023)

Molecular target: T1, 5-HT2c receptor (Homo sapiens, UniProt P28335)
T1 sequence (P28335 33-458): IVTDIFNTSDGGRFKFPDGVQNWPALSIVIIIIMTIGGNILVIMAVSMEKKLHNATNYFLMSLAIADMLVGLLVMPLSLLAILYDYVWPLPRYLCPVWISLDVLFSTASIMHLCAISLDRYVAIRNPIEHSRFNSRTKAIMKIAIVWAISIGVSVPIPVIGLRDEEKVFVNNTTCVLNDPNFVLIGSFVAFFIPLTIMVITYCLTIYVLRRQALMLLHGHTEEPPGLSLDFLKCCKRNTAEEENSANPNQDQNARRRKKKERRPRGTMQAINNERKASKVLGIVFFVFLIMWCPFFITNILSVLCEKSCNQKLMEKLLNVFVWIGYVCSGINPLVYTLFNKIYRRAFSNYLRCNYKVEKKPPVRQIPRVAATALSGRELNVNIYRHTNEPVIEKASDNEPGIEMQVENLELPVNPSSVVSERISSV
Assay: [35S]guanosine 5-O-(3-thio)triphosphate binding (5-HT2c partial agonism)
Assay type: biochemical
Settings: [35S]GTPgammaS binding, partial agonist

Clc1ccc([C@]23CNC[C@H]2C3)cc1Cl [amitifadine]
Emax: 52%
